In patent US20250018014A1, “METHOD FOR TREATING AND/OR PREVENTING REGNASE-1-RELATED DISEASE” (OSAKA UNIVERSITY, priority 2018, published 2025) one finds IC50 data, which are given here for one compound.

The target of test [1] is T1, FL_Reg1 (full-length human Regnase-1) phosphorylation by TBK1 (Homo sapiens, UniProt Q5D1E8).
T1 construct: made in house; host or cells: Expi293 cells
T1 sequence (Q5D1E8 1-599): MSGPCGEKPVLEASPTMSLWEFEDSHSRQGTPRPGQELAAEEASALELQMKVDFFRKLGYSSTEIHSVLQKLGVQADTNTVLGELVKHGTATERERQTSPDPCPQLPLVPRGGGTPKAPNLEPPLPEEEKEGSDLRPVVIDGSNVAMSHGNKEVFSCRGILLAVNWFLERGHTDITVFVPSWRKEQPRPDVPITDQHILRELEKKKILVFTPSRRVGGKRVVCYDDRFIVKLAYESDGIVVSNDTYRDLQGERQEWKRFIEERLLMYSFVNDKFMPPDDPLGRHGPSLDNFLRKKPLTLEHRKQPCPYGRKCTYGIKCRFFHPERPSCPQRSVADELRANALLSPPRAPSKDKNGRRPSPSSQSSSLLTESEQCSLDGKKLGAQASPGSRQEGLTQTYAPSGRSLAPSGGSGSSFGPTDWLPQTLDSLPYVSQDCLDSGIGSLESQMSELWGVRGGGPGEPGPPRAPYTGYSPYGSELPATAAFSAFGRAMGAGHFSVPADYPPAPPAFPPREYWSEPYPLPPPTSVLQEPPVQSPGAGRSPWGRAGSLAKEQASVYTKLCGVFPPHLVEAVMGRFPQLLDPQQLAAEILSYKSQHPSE
The experiment in a line: Regnase-1 phosphorylation inhibition by compounds (AlphaScreen), TBK1, full-length Regnase-1. Type of test: biochemical. The note with it: Table 13; phosphorylation by TBK1; read-out: Phosphorylation inhibition FL_Reg1, 50% inhibition concentration (TBK1). An excerpt: (§1) The full-length sequence of human Regnase-1 (UniProt ID: Q5D1E8) was used to prepare a construct having a FLAG tag on the N-terminal side and a recognition sequence for biotin ligase BirA on the C-terminal side (FL_Reg1) as a target protein. The above-mentioned Regnase-1 was expressed in mammalian Expi293 cells, purified with FLAG M2 agarose, and isolated by gel filtration chromatography. When biotinylation was required, methods from nonpatent documents (BMC biotechnology, 2008,8,41; and Protein Science, 1999,8,921-929) were used. […]
(§2) Using Kinase assay buffer III (manufactured by SignalChem) supplemented with 2 mM DTT, 100 μM sodium vanadate, and 2 mM manganese chloride, kinase (IKKβ (manufactured by SignalChem) or TBK1 (manufactured by SignalChem)) and Regnase-1 were reacted in the presence of 10 μM ATP at room temperature for 2 hours to perform a phosphorylation reaction.
(§3) Phosphorylated Regnase-1 was detected by the AlphaScreen system. After each of the above-mentioned phosphorylated Regnase-1 antibodies was added and reacted at room temperature for one hour, anti-FLAG AlphaLISA Acceptor Beads (manufactured by PerkinElmer) and Protein A AlphaScreen Donor Beads (manufactured by PerkinElmer) were added, and EnVision (manufactured by PerkinElmer) was used to measure the excited luminescence. As a result, phosphorylated Regnase-1 produced by the phosphorylation reaction by kinase was specifically detected, and signals were confirmed to be enhanced in a manner dependent on Regnase-1 and kinase concentrations (FIG. 24).
(§4) After mixing 2 nM of the above-mentioned Regnase-1 and the compound, phosphorylated Regnase-1 produced by the phosphorylation reaction was detected by the AlphaScreen system. As the results, the inhibition rate was calculated from the signals obtained when adding the compound at each concentration, by defining the signal obtained with Regnase-1 alone to be 100% inhibition rate, and the signal obtained when the same amount of solvent (DMSO) is added in place of the compound as 0% inhibition rate. The 50% inhibition concentration (μM) was calculated from the obtained dose response curve (Table 11).
In general terms: Bead proximity is the source of the signal in Alpha formats.

Test [2] addresses T2, binding between TBK1 and full-length Regnase-1 (FL_Reg1) (Homo sapiens, UniProt Q5D1E8).
T2 construct: made in house; host or cells: Expi293 cells
T2 sequence (Q5D1E8 1-599): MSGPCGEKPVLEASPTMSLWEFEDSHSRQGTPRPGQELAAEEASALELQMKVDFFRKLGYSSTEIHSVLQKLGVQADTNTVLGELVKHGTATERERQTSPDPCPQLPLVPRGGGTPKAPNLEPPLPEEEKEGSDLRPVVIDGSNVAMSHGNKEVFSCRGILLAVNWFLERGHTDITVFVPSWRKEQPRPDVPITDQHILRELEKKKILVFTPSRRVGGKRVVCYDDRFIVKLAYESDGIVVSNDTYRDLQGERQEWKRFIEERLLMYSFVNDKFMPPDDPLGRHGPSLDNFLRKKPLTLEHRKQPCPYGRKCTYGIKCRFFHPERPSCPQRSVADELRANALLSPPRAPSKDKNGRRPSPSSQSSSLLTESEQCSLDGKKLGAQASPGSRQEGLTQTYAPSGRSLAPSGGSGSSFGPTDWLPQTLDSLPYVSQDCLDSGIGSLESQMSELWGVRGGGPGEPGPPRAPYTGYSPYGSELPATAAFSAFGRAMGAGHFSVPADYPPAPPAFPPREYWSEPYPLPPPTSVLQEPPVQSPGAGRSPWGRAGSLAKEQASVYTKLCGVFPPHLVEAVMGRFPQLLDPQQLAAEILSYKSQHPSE
Nature of the test: Inhibition of kinase-Regnase-1 binding by the compounds (AlphaScreen), TBK1. Conditions: Table 13; binding between TBK1 and Regnase-1; read-out: Binding inhibition FL_Reg1, 50% inhibition concentration (TBK1). Here is the method:
(§5) As a target protein, a construct having a FLAG tag on the N-terminal side and a recognition sequence for biotin ligase BirA on the C-terminal side of the full-length sequence of human Regnase-1 (UniProt ID: Q5D1E8) was prepared (FL_Reg1). The above-mentioned Regnase-1 was expressed in mammalian Expi293 cells, purified with FLAG M2 agarose, and isolated by gel filtration chromatography. When biotinylation was required, methods from nonpatent documents (BMC biotechnology, 2008,8,41; and Protein Science, 1999,8,921-929) were used.
(§6) After mixing 2.5 nM of the above-mentioned Regnase-1 and the compound, 2.5 nM of IKKβ or TBK1 was added and reacted at room temperature for two hours. Then, Anti FLAG AlphaLISA Acceptor Beads (manufactured by PerkinElmer) and Glutathione-coated AlphaScreen Donor Beads (manufactured by PerkinElmer) were added, and excited luminescence was measured using En Vision (manufactured by PerkinElmer). As the results, the inhibition rate from the signals obtained when adding the compound at each concentration were calculated, by defining the signal obtained with Regnase-1 alone to be 100% inhibition rate, and the signal obtained when the same amount of solvent (DMSO) is added in place of the compound as 0% inhibition rate. The 50% inhibition concentration (μM) was calculated from the obtained dose response curve (Table 12).

Test [3] deals with T3, binding between IKKβ and full-length Regnase-1 (FL_Reg1) (Homo sapiens, UniProt Q5D1E8).
T3 construct: made in house; host or cells: Expi293 cells
T3 sequence (Q5D1E8 1-599): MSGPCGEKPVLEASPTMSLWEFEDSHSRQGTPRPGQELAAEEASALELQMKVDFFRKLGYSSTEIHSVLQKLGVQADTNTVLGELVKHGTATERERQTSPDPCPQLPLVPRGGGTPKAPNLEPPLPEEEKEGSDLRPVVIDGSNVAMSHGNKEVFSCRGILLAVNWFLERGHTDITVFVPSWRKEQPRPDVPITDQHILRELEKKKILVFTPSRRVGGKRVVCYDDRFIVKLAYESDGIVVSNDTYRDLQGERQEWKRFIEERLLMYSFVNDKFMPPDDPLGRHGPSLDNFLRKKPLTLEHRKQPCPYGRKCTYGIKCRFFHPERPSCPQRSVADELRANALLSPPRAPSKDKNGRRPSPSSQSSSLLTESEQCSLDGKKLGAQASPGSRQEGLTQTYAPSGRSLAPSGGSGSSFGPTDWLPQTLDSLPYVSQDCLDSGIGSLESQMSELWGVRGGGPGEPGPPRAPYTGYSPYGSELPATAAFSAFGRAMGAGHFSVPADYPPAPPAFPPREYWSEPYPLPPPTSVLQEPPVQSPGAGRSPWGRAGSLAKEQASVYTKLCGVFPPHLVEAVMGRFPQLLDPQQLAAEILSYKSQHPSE
The experiment in a line: Inhibition of kinase-Regnase-1 binding by the compounds (AlphaScreen), IKKβ. Conditions: Table 14; binding between IKKβ and Regnase-1; read-out: Binding inhibition FL_Reg1, 50% inhibition concentration (IKKβ). Here is the method:
as §5, §6

Test [4] has as its target T4, ΔCTD_Reg1 (amino acids 1 to 546 of human Regnase-1) phosphorylation by IKKβ (Homo sapiens, UniProt Q5D1E8).
T4 construct: made in house; host or cells: Expi293 cells
T4 sequence (Q5D1E8 1-546): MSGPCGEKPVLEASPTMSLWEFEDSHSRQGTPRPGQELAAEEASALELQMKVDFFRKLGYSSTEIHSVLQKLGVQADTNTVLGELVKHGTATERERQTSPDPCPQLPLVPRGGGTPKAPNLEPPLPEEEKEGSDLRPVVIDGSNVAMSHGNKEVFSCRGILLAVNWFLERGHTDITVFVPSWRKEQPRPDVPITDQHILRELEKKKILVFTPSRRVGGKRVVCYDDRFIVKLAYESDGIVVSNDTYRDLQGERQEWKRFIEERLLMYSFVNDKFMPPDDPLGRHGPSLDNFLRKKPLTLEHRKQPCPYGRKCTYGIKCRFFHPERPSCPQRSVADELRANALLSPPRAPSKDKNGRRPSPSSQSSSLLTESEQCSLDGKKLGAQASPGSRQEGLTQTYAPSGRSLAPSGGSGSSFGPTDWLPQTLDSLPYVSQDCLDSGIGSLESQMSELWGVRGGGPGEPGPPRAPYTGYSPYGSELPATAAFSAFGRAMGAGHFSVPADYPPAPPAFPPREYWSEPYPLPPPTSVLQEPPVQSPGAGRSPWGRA
Nature of the test: Regnase-1 phosphorylation inhibition by compounds (AlphaScreen), IKKβ, CTD-deficient Regnase-1. Conditions: Table 14; phosphorylation by IKKβ; read-out: Phosphorylation inhibition ΔCTD_Reg1, 50% inhibition concentration (IKKβ). Type of test: biochemical. Here is the method:
Among the full-length human Regnase-1 sequence, the 1st to 546th amino acid sequence was prepared and made into a construct having a FLAG tag on the N-terminal side and a biotin ligase BirA recognition sequence on the C-terminal side (herein, a Regnase-1 lacking the C-terminal domain of Regnase-1 (amino acids 547 to 599 in the case of SEQ ID NO: 2) is referred to as “ΔCTD_Reg1”. “ΔCTD_Reg1” is different from “Regnase-1ΔCTD”, which is a C-terminal domain deletion variant resulting from a frameshift mutation caused by a 1 bp deletion at codon 517, as prepared in Example 13). In addition, the sequence from amino acids 301 to 599 of the full-length human Regnase-1 sequence was designated as C-terminal Regnase-1, and a construct having a FLAG tag on the N-terminal side and a recognition sequence for biotin ligase BirA on the C-terminal side was prepared (Reg1_301-599). The above-mentioned Regnase-1 was expressed in mammalian Expi293 cells, purified with FLAG M2 agarose, and isolated by gel filtration chromatography. When biotinylation was required, methods of nonpatent documents (BMC biotechnology, 2008,8,41; and Protein Science, 1999,8,921-929) were used.
as §2, §3, §4

Test [5] addresses T5, FL_Reg1 (full-length human Regnase-1) phosphorylation by IKKβ (Homo sapiens, UniProt Q5D1E8).
T5 construct: made in house; host or cells: Expi293 cells
T5 sequence (Q5D1E8 1-599): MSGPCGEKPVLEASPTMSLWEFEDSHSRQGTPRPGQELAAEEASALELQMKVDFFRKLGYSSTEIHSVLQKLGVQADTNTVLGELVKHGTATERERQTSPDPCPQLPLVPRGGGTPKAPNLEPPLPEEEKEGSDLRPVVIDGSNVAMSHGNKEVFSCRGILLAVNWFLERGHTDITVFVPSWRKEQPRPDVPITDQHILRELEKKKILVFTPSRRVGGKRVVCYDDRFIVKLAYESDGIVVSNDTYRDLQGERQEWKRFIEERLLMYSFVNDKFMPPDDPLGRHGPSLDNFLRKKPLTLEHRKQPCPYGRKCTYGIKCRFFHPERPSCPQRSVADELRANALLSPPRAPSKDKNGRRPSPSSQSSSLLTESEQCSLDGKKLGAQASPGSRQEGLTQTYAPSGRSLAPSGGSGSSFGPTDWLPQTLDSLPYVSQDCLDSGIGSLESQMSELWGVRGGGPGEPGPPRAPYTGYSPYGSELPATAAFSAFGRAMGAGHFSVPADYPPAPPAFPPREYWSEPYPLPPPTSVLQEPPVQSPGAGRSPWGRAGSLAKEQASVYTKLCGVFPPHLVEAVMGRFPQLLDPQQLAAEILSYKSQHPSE
The experiment in a line: Regnase-1 phosphorylation inhibition by compounds (AlphaScreen), IKKβ, full-length Regnase-1. Type of test: biochemical. Conditions: Table 14; phosphorylation by IKKβ; read-out: Phosphorylation inhibition FL_Reg1, 50% inhibition concentration (IKKβ).
Description: as §1, §2, §3, §4

Structures are written as SMILES. Residues, ends and D or L forms follow the SMILES beside them.

Turning to `C[C@@H]1C(=O)N[C@@H](CCC(=O)O)C(=O)N[C@@H](CC(=O)O)C(=O)N[C@@H]([C@@H](C)O)C(=O)N2CCC[C@H]2C(=O)N[C@@H](CCC(=O)O)C(=O)N[C@@H](CC(=O)O)C(=O)N[C@@H](CC(=O)O)C(=O)N[C@@H](Cc2c[nH]cn2)C(=O)N[C@H](C(=O)N2CCCC2)CC(=O)N1C` [PP25] (HELM PEPTIDE1{[C[C@H](C(=O)[*:2])N(C)[*:1]].E.D.T.P.E.D.D.H.D.[C1CCN([*:1])C1]}$PEPTIDE1,PEPTIDE1,1:R1-10:R3$$$V2.0), the IC50 in test [1] is 18.9 µM; in test [2] it was 13.1 µM; in test [3], > 62.1 µM; in test [4], 47.7 µM; in test [5], 27 µM.
